pEC50, pIC50, pKd: −log10 of the molar value.
Experiments:
M. tuberculosis [1] = assay type: cell-based, Mycobacterium tuberculosis (ATCC 27294); conditions: for MEC (minimum effective concentration) / ethionamide boosting ability in M. tuberculosis culture / MEC for the 10-fold boosting of ethionamide: in the presence of 1/10 of the MIC of ethionamide; for MEC (minimum effective concentration): mean ± standard deviation of two independent replicates; for fold improvement in MEC on the starting fragment 1: relative to fragment 1; for fold drop in potency (MEC) on addition of an extra methylene unit to the linker: 15 relative to 14, 29 relative to 28
EthR = EthR (Mycobacterium tuberculosis, UniProt P9WMC1); assay: Isothermal titration calorimetry (ITC) binding to EthR; conditions: n = 1, one site binding model
Chain of EthR (P9WMC1 whole entry, looked up): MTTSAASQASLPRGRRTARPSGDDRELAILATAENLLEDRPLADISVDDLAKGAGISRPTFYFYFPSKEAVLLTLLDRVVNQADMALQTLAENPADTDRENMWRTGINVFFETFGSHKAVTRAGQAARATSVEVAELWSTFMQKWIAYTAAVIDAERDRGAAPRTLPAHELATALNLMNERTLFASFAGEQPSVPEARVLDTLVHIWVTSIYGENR
Procedure: Isothermal titration calorimetry (ITC)
An aqueous solution of the fragment to be tested (1 mM) was prepared containing NaCl (300 mM), Tris.HCl (20 mM, pH = 8.0), d6-DMSO (10% v/v) and glycerol (to match the 10% v/v glycerol content in the EthR stock solution). A separate aqueous solution of EthR (50 μM) containing NaCl (300 mM), Tris.HCl (20 mM, pH = 8.0) and DMSO-d6 (10% v/v) was prepared and placed in the sample cell of a MicroCal iTC200 microcalorimeter (GE Healthcare). The fragment solution was then titrated to the EthR solution over 19 or 39 injections (first injection of 0.4 μl and subsequent injections of 2.0 μL or 1.0 μL). Data was fitted to a one site binding model using Origin software.
Figure S10 ITC trace for cyclopentylmethyl pyrrolidine-1-carboxylate 2 binding to EthR.
(1 picture or pasted object on this page, not shown here)

M. tuberculosis [2] = tested on: M. tuberculosis; parameters: method as in PMID 24313835; conditions: cited from earlier work
[3] = tested on: M. tuberculosis infected murine macrophages; assay: Macrophage (intracellular) assay; assay type: cell-based, M. tuberculosis H37Rv-GFP in Raw264.7 macrophages; conditions: for concentrations at which intrinsic bactericidal activity against M. tuberculosis is seen: compound alone, without ethionamide; for pIC50 / pEC50: Mycobacterium tuberculosis, Macrophage; for pIC50: in the absence of ethionamide, read-out: IC50, intrinsic bactericidal effect; for pEC50: in the presence of 1/10 of the MIC of ethionamide

O=C(NCC1CCCC1)C1CCCC1 [Compound 4]
MEC (minimum effective concentration) (M. tuberculosis [1]): >50 µM | pKd (EthR): 4.96

O=C(CC12CC3CC(CC(C3)C1)C2)N1CCCC1 [Compound 17]
fold increase in ethionamide boosting ability (M. tuberculosis [1]; 17 relative to the inactive amide 16): over 30 fold | MEC (minimum effective concentration) (M. tuberculosis [1]): 1.6 ± 0.8 µM

CCc1cc(C(N)=S)ccn1 [ethionamide]
MIC of ethionamide (M. tuberculosis [2]; ethionamide alone): 15 µM

O=C(CC1CCCC1)N1CCCC1 [Compound 12]
MEC (minimum effective concentration) (M. tuberculosis [1]): 19 ± 7.5 µM

O=C(NCC1CCOC1)N1CCCC1 (centres unmarked) [Compound 10]
MEC (minimum effective concentration) (M. tuberculosis [1]): >50 µM

O=C(OCC1CCC1)N1CCCC1 [Compound 24]
MEC (minimum effective concentration) (M. tuberculosis [1]): 3.1 ± 1.8 µM

CC(C)(C)OC(=O)N1CCCC1 [Compound 30, Boc-pyrrolidine]
MEC (minimum effective concentration) (M. tuberculosis [1]): > 50 µM

O=C(OCC1CCCC1)N1CCCCCC1 [Compound 21]
ethionamide boosting ability in M. tuberculosis culture (M. tuberculosis [1]): loss of ethionamide boosting ability | MEC (minimum effective concentration) (M. tuberculosis [1]): > 50 µM

O=C(OCC1CCCC1)N1CCCCC1 [Compound 20]
ethionamide boosting ability in M. tuberculosis culture (M. tuberculosis [1]): loss of ethionamide boosting ability | MEC (minimum effective concentration) (M. tuberculosis [1]): > 50 µM

O=C(OCC1CCCC1)N1CCC1 [Compound 27]
MEC (minimum effective concentration) (M. tuberculosis [1]): 13 ± 7.2 µM

CCCCC(=O)N1CCCC1 [Compound 18]
MEC (minimum effective concentration) (M. tuberculosis [1]): > 50 µM

CCCC(=O)N1CCCC1 [Compound 19]
MEC (minimum effective concentration) (M. tuberculosis [1]): > 50 µM

O=C(CCC1CCCC1)N1CCCC1 [Compound 1]
ethionamide boosting in the macrophage assay [3]: significant boosting of ethionamide | concentrations at which intrinsic bactericidal activity against M. tuberculosis is seen [3]: higher than 1 μM | MIC of ethionamide in the presence of fragment 1 (M. tuberculosis [2]; fragment 1 at a concentration of 1 μM): approximately 2 μM

O=C(N1CCCC1)C12CC3CC(CC(C3)C1)C2 [Compound 16]
MEC (minimum effective concentration) (M. tuberculosis [1]): > 50 µM

O=C(/C=C/c1ccoc1)N1CCCC1 [Compound 7]
MEC (minimum effective concentration) (M. tuberculosis [1]): >50 µM | pKd (EthR): 4.70

O=C(OCCC1CCCC1)N1CCCC1 [Compound 22]
ethionamide boosting in the macrophage assay [3]: significant boosting of ethionamide | concentrations at which intrinsic bactericidal activity against M. tuberculosis is seen [3]: higher than 1 μM | MEC (minimum effective concentration) (M. tuberculosis [1]): 1.6 ± 0.9 µM

O=C(CCCC1CCCCC1)N1CCCC1 [Compound 14]
pIC50 [3]: ~6.00 | pEC50 [3]: 7.40 | MEC for the 10-fold boosting of ethionamide (M. tuberculosis [1]): 400 nM | MEC (minimum effective concentration) (M. tuberculosis [1]): 0.4 ± 0.2 µM | fold improvement in MEC on the starting fragment 1 (M. tuberculosis [1]): approximately 7 fold

O=C(OCC1CC1)N1CCCC1 [Compound 23]
ethionamide boosting in the macrophage assay [3]: significant boosting of ethionamide | MEC (minimum effective concentration) (M. tuberculosis [1]): 3.1 ± 1.8 µM

O=C(NCc1ccoc1)N1CCCC1 [Compound 9]
MEC (minimum effective concentration) (M. tuberculosis [1]): >50 µM

O=C(OCCCCC1CCCCC1)N1CCCC1 [Compound 29]
fold drop in potency (MEC) on addition of an extra methylene unit to the linker (M. tuberculosis [1]): roughly 16 fold | MEC (minimum effective concentration) (M. tuberculosis [1]): 6.3 ± 3.6 µM

O=C(OCCCC1CCCC1)N1CCCC1 [Compound 28]
pIC50 [3]: ~6.00 | pEC50 [3]: 7.30 | MEC for the 10-fold boosting of ethionamide (M. tuberculosis [1]): 400 nM | MEC (minimum effective concentration) (M. tuberculosis [1]): 0.4 ± 0.2 µM | fold improvement in MEC on the starting fragment 1 (M. tuberculosis [1]): roughly 7 fold

O=S(=O)(NCC1CCCC1)N1CCCC1 [Compound 6]
MEC (minimum effective concentration) (M. tuberculosis [1]): >50 µM | pKd (EthR): 4.70

CN(C)C(=O)OCC1CCCC1 [Compound 26]
MEC (minimum effective concentration) (M. tuberculosis [1]): 6.3 ± 3.6 µM

O=S(=O)(CCC1CCCC1)N1CCCC1 [Compound 5]
MEC (minimum effective concentration) (M. tuberculosis [1]): >50 µM | pKd (EthR): 4.80

O=C(OCC1CCCCC1)N1CCCC1 [Compound 25]
ethionamide boosting in the macrophage assay [3]: significant boosting of ethionamide | concentrations at which intrinsic bactericidal activity against M. tuberculosis is seen [3]: higher than 1 μM | MEC (minimum effective concentration) (M. tuberculosis [1]): 1.6 ± 0.9 µM

O=C(CCc1ccoc1)N1CCCC1 [Compound 8]
MEC (minimum effective concentration) (M. tuberculosis [1]): >50 µM | pKd (EthR): 4.66

O=C(C1CCCC1)N1CCCC1 [Compound 11]
MEC (minimum effective concentration) (M. tuberculosis [1]): > 50 µM

O=C(CCCCC1CCCCC1)N1CCCC1 [Compound 15]
fold drop in potency (MEC) on addition of an extra methylene unit to the linker (M. tuberculosis [1]): 4 fold | MEC (minimum effective concentration) (M. tuberculosis [1]): 1.6 ± 0.8 µM

O=C(OCC1CCCC1)N1CCCC1 [Compound 2, cyclopentylmethyl pyrrolidine-1-carboxylate]
MEC (minimum effective concentration) (M. tuberculosis [1]): 19 ± 7.5 µM | pKd (EthR): 4.82

O=C(CCC1CCCCC1)N1CCCC1 [Compound 13]
MEC (minimum effective concentration) (M. tuberculosis [1]): 0.8 ± 0.5 µM | fold improvement in MEC on the starting fragment 1 (M. tuberculosis [1]): approximately 4 fold

O=C(NCC1CCCC1)N1CCCC1 [Compound 3]
MEC (minimum effective concentration) (M. tuberculosis [1]): >50 µM | pKd (EthR): 5.22

— paper PMC5474694, “Fragment-Sized EthR Inhibitors Exhibit Exceptionally Strong Ethionamide Boosting Effect in Whole-Cell Mycobacterium tuberculosis Assays” (ACS Chemical Biology, 2017)
